Biological target: T1, hArfGAP1 (human ArfGAP1) (Homo sapiens, UniProt Q8N6T3)
T1 construct: expressed in transfected cells; host or cells: Saccharomyces cerevisiae strain PPY17:114-3B-141-A (gcs1::NatR, pdr5::HIS3, snq2::TRP1), galactose-induced
Experiment: Yeast growth restoration screen: S. cerevisiae gcs1 knockout strain expressing hArfGAP1
Type: cell-based
Details: retest at various concentrations, FIG. 5; A600; compared with 3B-VEC empty vector strain
Excerpt: Overexpression of heterologous proteins in the yeast Saccharomyces cerevisiae often inhibits its growth, while inhibitors of the overexpressed proteins can restore growth. These simple observations form the basis of a powerful assay to identify inhibitors of such proteins. An expression plasmid for the inducible expression of a gene of interest is introduced into a yeast strain rendered more sensitive to chemicals by deletion of efflux pumps. Protein expression is induced, cells are exposed to test chemicals, and growth is measured by optical density at 600 nm (OD600 or A600) reading.
In the instant case, a S. cerevisiae gcs1 knockout strain is employed bearing a vector expressing the heterologous protein hArfGAP1 (human ArfGAP1, the human ortholog of yeast GCS1). Generally, expression of ArfGAP1 will suppress growth of gcs1 knockout yeast and thus small molecules that inhibit ArfGAP1 will lead to observable increases in growth. This in turn allows for the direct identification of small molecules that could be used to treat LRRK2-mutation induced PD.
PPY17:114-3B-vec (gcs1::NatR, pdr5::HIS3, snq2::TRP1, ura3, ade2, carrying plasmid pRS315) [empty vector control strain]; PPY17:114-3B-141-A (gcs1::NatR, pdr5::HIS3, snq2::TRP1, ura3, ade2, carrying plasmid pPP16:141 pGAL1-hArfGAP1) [human ArfGAP1-expressing strain].
1. The day before screening, the control strain containing the empty plasmid and the selected test strain bearing the plasmid with the gene of interest were inoculated into 2 mL of SC selection medium containing 2% glucose. Cells were grown overnight at 30° C. with shaking at 220 rpm. Note: it can be observed that the yeast strain expressing human expression vector and the yeast strain containing the empty vector grow at the same rate in glucose, which represses ArfGAP1 expression.
4. The pellet was suspended in 1-mL sterile water and the A 600 was measured. […]
9. Stacks of five plates were shaken on a vortexer at low speed (e.g., setting 4 of a Genie 2 Vortex mixer) for 90 s to resuspend the yeast cells, and the A 600 was measured using a 96-well plate reader. […]

T1 sequence (Q8N6T3 whole entry): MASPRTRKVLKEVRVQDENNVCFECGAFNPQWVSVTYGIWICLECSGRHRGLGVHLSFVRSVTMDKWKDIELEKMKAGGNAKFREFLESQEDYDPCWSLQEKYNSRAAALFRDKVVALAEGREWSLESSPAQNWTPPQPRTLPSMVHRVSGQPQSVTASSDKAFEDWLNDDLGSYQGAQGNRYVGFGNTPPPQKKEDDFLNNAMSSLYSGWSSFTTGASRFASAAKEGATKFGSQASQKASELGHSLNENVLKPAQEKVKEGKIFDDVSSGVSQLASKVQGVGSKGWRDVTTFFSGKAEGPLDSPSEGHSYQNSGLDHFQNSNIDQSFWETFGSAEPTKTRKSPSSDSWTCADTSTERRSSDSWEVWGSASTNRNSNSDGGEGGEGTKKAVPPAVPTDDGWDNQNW

growth of yeast ArfGAP1 gcs1 knockout strains | SMILES
dose-dependent growth | O=[N+]([O-])c1ccc(N2CCN(Cc3cccs3)CC2)cc1 [compound 5261344]
dose-dependent growth | C/C=C(\C)CN1CCN(c2ccc(C(C)=O)cc2)CC1 [compound 5431942]
dose-dependent growth | CC(=O)c1ccc(N2CCN(CC3=CC[C@H]4C[C@@H]3C4(C)C)CC2)cc1 [compound 5429814]

Reference: patent US10300055B2, “Treatment of parkinson's disease through ARFGAP1 inhibition” (Dalhousie University, priority 2014, dated 2019)
